From US20260138990A1, “TRICYCLIC FUSED IMIDAZOLE COMPOUNDS AS CD38 MODULATORS AND USES THEREOF” (AEOVIAN PHARMACEUTICALS, INC., priority 2023, published 2026)

How the values were obtained:
[1] = target: T1, human CD38 (Homo sapiens, UniProt P28907); test: NAD+ cyclase activity assay with human recombinant CD38 protein (ε-NAD fluorescence); assay type: biochemical; settings: 1.9 nM human CD38, substrate ε-NAD, 30 min preincubation, fluorescence 300/410 nm
T1 construct: purchased Bio-Techne GmbH AVI2404
T1 sequence (P28907 1-300): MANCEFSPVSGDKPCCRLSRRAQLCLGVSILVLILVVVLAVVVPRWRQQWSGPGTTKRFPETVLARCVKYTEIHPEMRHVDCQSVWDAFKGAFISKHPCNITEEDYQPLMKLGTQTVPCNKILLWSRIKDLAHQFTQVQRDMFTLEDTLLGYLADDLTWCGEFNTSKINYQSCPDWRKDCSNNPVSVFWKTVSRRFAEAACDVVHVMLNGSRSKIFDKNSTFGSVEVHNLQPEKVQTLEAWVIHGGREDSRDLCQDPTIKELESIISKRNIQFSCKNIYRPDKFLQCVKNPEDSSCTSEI
In short: (§1)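 Twelve-point threefold compound dilutions were given 30 min at room temperature with 0.6 nM mouse or 1.9 nM human CD38 before […] ε-NAD was added (pH 7.5 HEPES/sucrose/Tween buffer). The rate came from the linear-phase slope of ex 300/em 410 nm fluorescence against vehicle and no-CD38 controls.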

[2] = target: T2, mouse CD38 (Mus musculus, UniProt P56528); test: NAD+ cyclase activity assay with mouse recombinant CD38 protein (ε-NAD fluorescence); assay type: biochemical; settings: 0.6 nM mouse CD38, substrate ε-NAD, 30 min preincubation, fluorescence 300/410 nm
T2 construct: purchased Bio-Techne GmbH 4947-AC
T2 sequence (P56528 1-304): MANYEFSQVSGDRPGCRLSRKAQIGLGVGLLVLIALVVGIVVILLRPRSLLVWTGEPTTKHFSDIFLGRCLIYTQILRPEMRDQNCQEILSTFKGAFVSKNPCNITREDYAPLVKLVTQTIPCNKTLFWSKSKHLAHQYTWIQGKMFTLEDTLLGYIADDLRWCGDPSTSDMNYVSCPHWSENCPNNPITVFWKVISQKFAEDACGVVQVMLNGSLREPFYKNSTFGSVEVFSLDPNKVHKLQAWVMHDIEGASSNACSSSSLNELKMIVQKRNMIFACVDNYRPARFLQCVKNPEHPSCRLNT
In short: as §1

## CS(=O)(=O)c1cccc(NC(=O)c2ccc3c(c2)-c2cncn2CCO3)c1 [Compound 18A, N-(3-(Methylsulfonyl)phenyl)-5,6-dihydrobenzo[f]imidazo[1,5-d][1,4]oxazepine-10-carboxamide]
[1]
  IC50: < 0.03 µM
[2]
  IC50: < 0.001 µM

## O=C(N[C@H]1CC[C@H](OCC(F)(F)F)CC1)c1cc(Cl)c2c(c1)-c1cncn1CCO2 [Compound 157A, 8-Chloro-N-((1r,4r)-4-(2,2,2-trifluoroethoxy)cyclohexyl)-5,6-dihydrobenzo[f]imidazo[1,5-d][1,4]oxazepine-10-carboxamide]
[1]
  IC50: < 0.03 µM
[2]
  IC50: < 0.001 µM

## COCCO[C@H]1CC[C@H](NC(=O)c2ccc3[nH]c(=O)c4cncn4c3c2)CC1 [Compound 11A, N-((1r,4r)-4-(2-Methoxyethoxy)cyclohexyl)-4-oxo-4,5-dihydroimidazo[1,5-a]quinoxaline-8-carboxamide]
[1]
  IC50: > 1 µM
[2]
  IC50: > 0.1 µM

## CC1(F)CC(NC(=O)c2ccc3c(c2)-c2cncn2CCO3)C1 (stereo not drawn) [Compound 136A, N-(3-Fluoro-3-methylcyclobutyl)-5,6-dihydrobenzo[f]imidazo[1,5-d][1,4]oxazepine-10-carboxamide]
[1]
  IC50: 0.03 to 0.1 µM
[2]
  IC50: 0.001 to 0.01 µM

## O=C(N[C@H]1CC[C@H](C(=O)NCC(F)(F)F)CC1)c1ccc2c(c1)-c1cncn1CCO2 [Compound 61A, N-((1r,4r)-4-((2,2,2-Trifluoroethyl)carbamoyl)cyclohexyl)-5,6-dihydrobenzo[f]imidazo[1,5-d][1,4]oxazepine-10-carboxamide]
[1]
  IC50: < 0.03 µM
[2]
  IC50: < 0.001 µM

## O=C(N[C@@H]1CCS(=O)(=O)C1)c1ccc2[nH]c(=O)c3cncn3c2c1 [Compound 12A, (R)—N-(1,1-Dioxidotetrahydrothiophen-3-yl)-4-oxo-4,5-dihydroimidazo[1,5-a]quinoxaline-8-carboxamide]
[1]
  IC50: > 1 µM
[2]
  IC50: > 0.1 µM

## O=C(Nc1ccc2c(c1)COC2)c1ccc2c(c1)-c1cncn1CCO2 [Compound 33A, N-(1,3-Dihydroisobenzofuran-5-yl)-5,6-dihydrobenzo[f]imidazo[1,5-d][1,4]oxazepine-10-carboxamide]
[1]
  IC50: < 0.03 µM
[2]
  IC50: 0.001 to 0.01 µM

## O=C(N[C@H]1CC[C@H](OC2CC(F)(F)C2)CC1)c1ccc2c(c1)-c1cncn1CCO2 [Compound 152A, N-((1r,4r)-4-(3,3-Difluorocyclobutoxy)cyclohexyl)-5,6-dihydrobenzo[f]imidazo[1,5-d][1,4]oxazepine-10-carboxamide]
[1]
  IC50: < 0.03 µM
[2]
  IC50: 0.001 to 0.01 µM

## C[C@@H]1CCC[C@@H](C)C1NC(=O)c1cc(F)c2c(c1)-c1cncn1CCO2 (relative stereo) [Compound 177A, N-(trans-2-cis-6-Dimethylcyclohexyl)-8-fluoro-5,6-dihydrobenzo[f]imidazo[1,5-d][1,4]oxazepine-10-carboxamide]
[1]
  IC50: < 0.03 µM
[2]
  IC50: 0.001 to 0.01 µM

## O=C(N[C@H]1CC[C@@H](O[C@H]2C[C@H](F)C2)CC1)c1ccc2c(c1)-c1cncn1CCO2 [Compound 150A, N-((1s,4s)-4-((1r,3r)-3-Fluorocyclobutoxy)cyclohexyl)-5,6-dihydrobenzo[f]imidazo[1,5-d][1,4]oxazepine-10-carboxamide]
[1]
  IC50: 0.1 to 1 µM
[2]
  IC50: > 0.1 µM

## CS(=O)(=O)c1cc(NC(=O)c2ccc3c(c2)-c2cncn2CCO3)ccc1F [Compound 21A, N-(4-Fluoro-3-(methylsulfonyl)phenyl)-5,6-dihydrobenzo[f]imidazo[1,5-d][1,4]oxazepine-10-carboxamide]
[1]
  IC50: < 0.03 µM
[2]
  IC50: < 0.001 µM

## O=C(N[C@@H]1CCC(F)(F)C1)c1cc(Cl)c2c(c1)-c1cncn1CCO2 [Compound 112A, (R)-8-Chloro-N-(3,3-difluorocyclopentyl)-5,6-dihydrobenzo[f]imidazo[1,5-d][1,4]oxazepine-10-carboxamide]
[1]
  IC50: < 0.03 µM
[2]
  IC50: < 0.001 µM

## O=C(NC1CCC(CC(F)(F)F)CC1)c1cc(F)c2c(c1)-c1cncn1CCO2 (stereo not drawn) [Compound 164A, 8-Fluoro-N-(4-(2,2,2-trifluoroethyl)cyclohexyl)-5,6-dihydrobenzo[f]imidazo[1,5-d][1,4]oxazepine-10-carboxamide]
[1]
  IC50: < 0.03 µM
[2]
  IC50: 0.001 to 0.01 µM

## O=C(NC1CCCC(F)(F)C1)c1ccc2c(c1)-c1cncn1CCO2 (stereo not drawn) [Compound 96A, N-(3,3-Difluorocyclohexyl)-5,6-dihydrobenzo[f]imidazo[1,5-d][1,4]oxazepine-10-carboxamide]
[1]
  IC50: < 0.03 µM
[2]
  IC50: 0.001 to 0.01 µM

## CO[C@H]1CC[C@H](NC(=O)c2ccc3c(c2)-c2cncn2CCO3)CC1 [Compound 20A, N-((1r,4r)-4-Methoxycyclohexyl)-5,6-dihydrobenzo[f]imidazo[1,5-d][1,4]oxazepine-10-carboxamide]
[1]
  IC50: < 0.03 µM
[2]
  IC50: < 0.001 µM

## COCCO[C@H]1CC[C@H](NC(=O)c2cc(Br)c3c(c2)-c2cncn2CCO3)CC1 [Compound 46A, 8-Bromo-N-((1r,4r)-4-(2-methoxyethoxy)cyclohexyl)-5,6-dihydrobenzo[f]imidazo[1,5-d][1,4]oxazepine-10-carboxamide]
[1]
  IC50: < 0.03 µM
[2]
  IC50: < 0.001 µM

## CC(C)(C)OC(=O)N1Cc2ccc(NC(=O)c3ccc4c(c3)-c3cncn3CCO4)cc2C1 [Compound 23A, tert-Butyl 5-(5,6-dihydrobenzo[f]imidazo[1,5-d][1,4]oxazepine-10-carboxamido)isoindoline-2-carboxylate]
[1]
  IC50: 0.03 to 0.1 µM
[2]
  IC50: 0.01 to 0.1 µM

## O=C(N[C@H]1CC[C@H](N2CC(C(F)F)C2)CC1)c1ccc2c(c1)-c1cncn1CCO2 [Compound 113A, N-((1r,4r)-4-(3-(Difluoromethyl)azetidin-1-yl)cyclohexyl)-5,6-dihydrobenzo[f]imidazo[1,5-d][1,4]oxazepine-10-carboxamide]
[1]
  IC50: < 0.03 µM
[2]
  IC50: 0.001 to 0.01 µM

## O=C(NC1CCC(CC(F)(F)F)CC1)c1cc(Cl)c2c(c1)-c1cncn1CCO2 (stereo not drawn) [Compound 165A, 8-Chloro-N-(4-(2,2,2-trifluoroethyl)cyclohexyl)-5,6-dihydrobenzo[f]imidazo[1,5-d][1,4]oxazepine-10-carboxamide]
[1]
  IC50: < 0.03 µM
[2]
  IC50: 0.001 to 0.01 µM

## O=C(Nc1ccc2c(c1)OCC2)c1ccc2c(c1)-c1cncn1CCO2 [Compound 32A, N-(2,3-Dihydrobenzofuran-6-yl)-5,6-dihydrobenzo[f]imidazo[1,5-d][1,4]oxazepine-10-carboxamide]
[1]
  IC50: < 0.03 µM
[2]
  IC50: 0.001 to 0.01 µM

## COCCO[C@H]1CC[C@H](NC(=O)c2cc(Cl)c3c(c2)-c2cncn2CCO3)CC1 [Compound 94A, 8-Chloro-N-((1r,4r)-4-(2-methoxyethoxy)cyclohexyl)-5,6-dihydrobenzo[f]imidazo[1,5-d][1,4]oxazepine-10-carboxamide]
[1]
  IC50: < 0.03 µM
[2]
  IC50: < 0.001 µM

## CC(C)(CO[C@H]1CC[C@@H](NC(=O)c2cc(Cl)c3c(c2)-c2cncn2CCO3)CC1)C(F)(F)F [Compound 171A, 8-Chloro-N-((1s,4s)-4-(3,3,3-trifluoro-2,2-dimethylpropoxy)cyclohexyl)-5,6-dihydrobenzo[f]imidazo[1,5-d][1,4]oxazepine-10-carboxamide]
[1]
  IC50: > 1 µM
[2]
  IC50: > 0.1 µM

## O=C(N[C@H]1CC[C@H](NCC(F)(F)F)CC1)c1cc(F)c2c(c1)-c1cncn1CCO2 [Compound 115A, 8-Fluoro-N-((1r,4r)-4-((2,2,2-trifluoroethyl)amino)cyclohexyl)-5,6-dihydrobenzo[f]imidazo[1,5-d][1,4]oxazepine-10-carboxamide]
[1]
  IC50: < 0.03 µM
[2]
  IC50: < 0.001 µM

## O=C(Nc1cnc2c(c1)OCCO2)c1cc(F)c2c(c1)-c1cncn1CCO2 [Compound 97A, N-(2,3-Dihydro-[1,4]dioxino[2,3-b]pyridin-7-yl)-8-fluoro-5,6-dihydrobenzo[f]imidazo[1,5-d][1,4]oxazepine-10-carboxamide]
[1]
  IC50: < 0.03 µM
[2]
  IC50: < 0.001 µM

## COCCNc1nc2ccc(C(=O)N[C@@H]3CCCOC3)cc2n2cncc12 [Compound 27A, (R)-4-((2-Methoxyethyl)amino)-N-(tetrahydro-2H-pyran-3-yl)imidazo[1,5-a]quinoxaline-8-carboxamide]
[1]
  IC50: 0.1 to 1 µM
[2]
  IC50: 0.001 to 0.01 µM

## O=C(Nc1cnc(OCCC(F)F)nc1)c1ccc2c(c1)-c1cncn1CCO2 [Compound 103A, N-(2-(3,3-Difluoropropoxy)pyrimidin-5-yl)-5,6-dihydrobenzo[f]imidazo[1,5-d][1,4]oxazepine-10-carboxamide]
[1]
  IC50: < 0.03 µM
[2]
  IC50: 0.001 to 0.01 µM

## CC(C)(O)[C@H]1CC[C@H](NC(=O)c2cc(F)c3c(c2)-c2cncn2CCO3)CC1 [Compound 114A, 8-Fluoro-N-((1r,4r)-4-(2-hydroxypropan-2-yl)cyclohexyl)-5,6-dihydrobenzo[f]imidazo[1,5-d][1,4]oxazepine-10-carboxamide]
[1]
  IC50: < 0.03 µM
[2]
  IC50: < 0.001 µM
